Measured values: patent publication US5372944A, “Method for conversion of halogenated hydrocarbons to halohydrins” (The Dow Chemical Company, priority 1993, dated 1994)

Legend:
[1] = system: double mutants lacking both ADH and halohydrin dehalogenase activity; test: Whole cell conversion of DCP, DCB and TCP by double mutants: kinetics, selectivity, enantioselectivity; assay type: cell-based, Rhodococcus species; details: double mutants grown on succinate, induced with 1-chlorobutane
Description: To evaluate kinetics and selectivity of various mutants with respect to conversion of the target halocarbons, 1,2-dichloropropane (DCP), 1,2-dichloro-butane (DCB) and 1,2,3-trichloropropane (TCP) cultures were first inoculated from slants into 25 mL nutrient media in a 125 mL flask and grown overnight. Five mL were inoculated into 50 mL of MM1X4P containing 5 g/L disodium succinate in a 250 mL flask. Following 4 hours of growth and again at 8 hours, 10 μl of 1-chlorobutane was added for induction of the dehalogenase. Following 24 hours growth, cells were harvested by centrifugation and resuspended into 50 mL of fresh sterile MM1X4P and transferred to a sterile 250 mL shake flask equipped with a bulb feeder as described by Gibson, et al., supra. DCP, DCB, and TCP were added to bulb feeders and reaction progress monitored by gas chromatography (GC). Throughout the protocol, volumes were modified as needed to provide higher concentrations of cells and/or to provide identical batches of induced cells for comparative studies.
(§1) For gas chromatography (GC) analysis of halogenated metabolites, cultures were centrifuged briefly to remove cells, saturated with sodium sulfate, and an equivalent volume of methylene chloride added. The suspension was vortexed vigorously, centrifuged to break the emulsion and the methylene chloride phase removed.
(§2) Analysis of all halocarbon substrates and products from culture broths was done by GC using a Hewlett Packard 5710 equipped with a 7671A Autoinjector with the following protocol:
Analysis for optical activity of microbially produced 2,3-dichloro-1-propanol was determined independently using two methods. […] Enantiomeric composition of DCP, DCB, and respective halohydrins can also be monitored using a derivatized cyclodexdrin gas chromatography column (CHIRALDEX™ type B-TA Column, Advanced Separation Technologies, Inc.). Enantiomeric excess was determined by a comparison of peak areas.
The double mutants were evaluated for conversion of DCP, DCB, and TCP following growth on succinate in the presence of 1-chlorobutane as an inducer of the dehalogenase. […]

[2] = system: dehalogenase in cell free extracts of Rhodococcus Rhodochrous, TDTM-003; test: Primary screen of dehalogenase activity in cell free extracts of TDTM-003; assay type: biochemical
Description: Following overnight growth, 50 μl of 1-chlorobutane was added to induce the dehalogenase. After 24 hours induction, cells were harvested by centrifugation, resuspended in cold 10mM Tris sulfate/1 mM disodium EDTA, pH=7.5, and disrupted by sonication. Cell debris was removed by centrifugation at 10,000 rpm for 30 minutes, cell free extracts dialyzed overnight against the same buffer, and assayed without dilution for dehalogenase activity.
Free chloride or bromide was assayed qualitatively using a chloride electrode (Orion), or quantitatively using the colorimetric method (430 nm) described by J. G. Bergmann, et al., Anal. Chem., 29:241-243 (1957).
(§3) Hydrolytic dehalogenase enzyme activity was evaluated by adding an appropriate amount of cell free extract or enzyme preparation to 5.0 mL of 100 mM glycine buffer, pH=9.0 in a 7 mL glass vial. The halogenated substrate (5.0 μl) and a small stir bar were added, and the vial capped. Reaction was initiated by transfer to a 30° C. water bath equipped with a magnetic stirrer. Periodically 1.0 mL samples were removed and assayed for free halide. Rates were determined after correcting for non-enzymatic hydrolysis with an appropriate blank. A standard curve was prepared using sodium chloride.
Preliminary studies were performed on cell free extracts of TDTM-003 to evaluate the enzyme substrate selectivity, and the results of this study are shown in Table 2.

[3] = target: partially purified TDTM-003 dehalogenase (Rhodococcus sp. TDTM0003, UniProt P59336); test: Substrate profile of partially purified TDTM-003 dehalogenase; assay type: biochemical, Rhodococcus species TDTM-003; details: corrected for non-enzymatic hydrolysis
Sequence of partially purified TDTM-003 dehalogenase (P59336 whole entry): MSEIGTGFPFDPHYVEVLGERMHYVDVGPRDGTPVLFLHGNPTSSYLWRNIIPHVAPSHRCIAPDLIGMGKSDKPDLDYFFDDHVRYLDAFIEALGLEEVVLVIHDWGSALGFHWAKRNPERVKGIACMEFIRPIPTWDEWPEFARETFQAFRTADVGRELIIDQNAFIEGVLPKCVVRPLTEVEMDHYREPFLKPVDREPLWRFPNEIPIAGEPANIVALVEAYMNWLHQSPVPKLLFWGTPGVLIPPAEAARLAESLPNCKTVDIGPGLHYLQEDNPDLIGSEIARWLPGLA
Description: as §3
Frozen pellets from 2 liters of culture were thawed into 150 mL of 10 mM Tris sulfate buffer, pH=7.5 containing 1 mM disodium EDTA. This buffer was used throughout the entire purification. The suspension was sonicated for approximately 1 hour with ice cooling using a Microson Ultrasonic Cell Disrupter and centrifuged at 10,000 rpm for 15 minutes to remove cell debris. Supernatant was removed and the sonication/centrifugation repeated with fresh buffer to increase enzyme yield. Overall sonication efficiency was monitored by absorbence at 280 nm. Cell free extracts were combined and brought slowly to 30 percent saturation with solid ammonium sulfate. The suspension was centrifuged at 10,000 rpm for 30 minutes and the pellet discarded. The supernatant was brought to 70 percent saturation with solid ammonium sulfate and centrifugation repeated. Supernatant was discarded and the pellet taken up in a small volume of buffer and dialyzed overnight against 1 liter of the same. The preparation was applied to a 1.5×15cm column of DEAE-Sephadex equilibrated with the same buffer elution carried out with a 1 liter gradient from 0 to 400 mM ammonium sulfate. Fractions of about 7-8 mLs were collected. The active fractions were pooled and brought to 90 percent saturation with ammonium sulfate. The pellet was taken up in a minimal amount of buffer, ultrafiltered to 2.5 mL using 10,000 MWCO Novacell Ultrafiltration cell, and applied to a 1.5×90 cm Sephadex G-100 column. Elution was by gravity at 90 cm and fractions of 7-8 mLs were collected. Active fractions were poled, brought to 30 percent saturation with ammonium sulfate, and applied to a 10 ml column of Butyl-agarose equilibrated in the same. Elution was performed with a 500 mL gradient from 30 percent-0 percent ammonium sulfate. Active fractions were pooled, dialyzed and used for substrate selectivity studies.
To evaluate the substrate selectivity of haloalkane dehalogenase from isolated Rhodococcus species, an enzyme preparation from the strain designated TDTM-003 was purified by the procedure described under General Experimental. This preparation provided a dehalogenase which was approximately 50 percent pure as estimated by SDS-PAGE and was free of interfering halohydrin dehalogenase activity.
The activity of this partially purified TDTM-003 dehalogenase preparation was evaluated against various chlorinated and brominated substrates. Each enzymatic rate was corrected for non-enzymatic hydroloysis.

TDTM-003-60-2-11 = test: Dehalogenation by double mutant strain TDTM-003-60-2-11 in shake flask with bulb feeder; assay type: cell-based, Rhodococcus sp.; details: 28° C., 150 rpm, substrate from bulb feeder
Source text: as §1, §2
Dehalogenation of 1,2-dichloropropane by the double mutant strain of Rhodococcus sp., designated TDTM-003-60-2-11 was assayed in the following manner: 5 mL of an overnight culture (16 hours) were used as inoculum for 50 mL MM1X4P containing 5 g/L disodium succinate in a 250 mL flask. At 4 and 8 hours growth, 10 μL of 1-chlorobutane was added to induce the dehalogenase enzyme. Following 24 hours of growth, cells were harvested by centrifugation, resuspended into 50 mL of fresh MM1X4P, and transferred to a sterile 250 mL shake flask equipped with a bulb feeder. To the bulb feeder was added 1,2-dichloropropane and incubation continued at 28° C. and 150 rpm. […] The production of halohydrin products was monitored by gas chromatography. 1 -Chloro-2-propanol and 2-chloro-1-propanol accumulate linearly in the culture broth to 74 parts-per-million (ppm) (w/v) and 20 ppm (w/v) respectively after 120 hours. The overall rate of halohydrin production is 0.60 mg/g dry cells/hr.
The procedure described in Example 6 was followed except 1,2-dichlorobutanereplaced 1-chlorobutane in the bulb feeder.
The procedure described in Example 6 was followed except 1,2,3-trichloropropane replaced 1-chlorobutane in the bulb feeder.

TDTM-003 = test: Utilization of carbon containing compounds for growth in liquid culture, TDTM-003; assay type: cell-based, Rhodococcus species; details: strain TDTM-003, liquid culture

| Structure (SMILES) | in vivo rates of conversion [1] | Relative Rate of Chloride Release, 1-chlorobutane = 100 [2] | Relative Rate of Halogen Release, 1-Chlorobutane = 100 [3] | overall rate of halohydrin production (TDTM-003-60-2-11) | utilization as a sole source of carbon (TDTM-003) |
| --- | --- | --- | --- | --- | --- |
| ClCC(Cl)CCl [1,2,3-trichloropropane] | 1.06 mg product/g dry cells/hr | 23 | 18.000 | 2.39 mg/g dry cells/hr | – |
| CCC(Cl)CCl (stereo not shown) [1,2-dichlorobutane] | 1.29 mg product/g dry cells/hr | 108 | 33.000 | 2.47 mg/g dry cells/hr | – |
| CC(Cl)CCl (stereo not shown) [1,2-dichloropropane] | 0.30 mg product/g dry cells/hr | 4.2 | 5.800 | 0.60 mg/g dry cells/hr | does not utilize |
